kinact data for one compound are collected here from patent US11684676B2, “Site-specific antibody-drug conjugates by ADP-ribosyl cyclases” (University of Southern California, priority 2020, dated 2023).

The assay relates to CD38 C-fusion IgG. Description: Inactivation of CD38 C-fusion IgG by 2′-Cl-araNAD+-N3. The conditions noted are these: CD38 C-fusion IgG 2 nM, NGD+ 100 μM. Format: biochemical, human. The text has this: The formation of cyclic GDP-ribose was monitored by a Synergy H1 plate reader (Biotek, VT) under the kinetic mode with excitation wavelength set at 300 nm and emission wavelength at 410 nm.

As usually defined, the kinact is the maximal first-order rate at which the target is inactivated.

For `[N-]=[N+]=NCCCNc1ncnc2c1ncn2[C@@H]1O[C@H](COP(=O)(O)OP(=O)([O-])OC[C@H]2O[C@@H]([n+]3cccc(C(N)=O)c3)[C@@H](Cl)[C@@H]2O)[C@@H](O)[C@H]1O` [2′-Cl-araNAD^+-N3, 1-((2R,3S,4R,5R)-5-((((((((2R,3S,4R,5R)-5-(6-((3-azidopropyl)amino)-9H-purin-9-yl)-3,4-dihydroxytetrahydrofuran-2-yl)methoxy)(hydroxy)phosphoryl)oxy)oxidophosphoryl)oxy)methyl)-3-chloro-4-hydroxytetrahydrofuran-2-yl)-3-carbamoylpyridin-1-ium], the kinact turned out to be 0.0039 ± 0.0007 s⁻¹.
